The source of these data is patent US20230077362A1 (CORTEVA AGRISCIENCE LLC, priority 2019, published 2023).

Common to all, as to type: in vivo
The test system of test [1] is Yellow Fever Mosquito "YFM" (Aedes aegypti), about 1 day-old larvae. Description: Bioassay on yellow fever mosquito (YFM), 96-well plate larval assay. The note with it: for YFM (Biological Results, rating): Yellow Fever Mosquito (Aedes aegypti) larvae, scored on mortality after 3 days, C = Not Tested; for YFM rating: Table ABC, species YFM, mortality scored after 3 days, C = not tested, D = no activity noticed. The procedure: Example C: Bioassays on Yellow Fever Mosquito “YFM” (Aedes aegypti)
Certain molecules disclosed in this document were tested against YFM using procedures described in the following paragraph. In the reporting of the results, the “YFM Rating Table” was used (See Table Section).
Master plates containing 400 μg of a molecule dissolved in 100 μL of dimethyl sulfoxide (DMSO) (equivalent to a 4000 ppm solution) are used. A master plate of assembled molecules contains 15 μL per well. To this plate, 135 μL of a 90:10 water:acetone mixture is added to each well. A robot (Biomek® NXP Laboratory Automation Workstation) is programmed to dispense 15 μL aspirations from the master plate into an empty 96-well shallow plate (“daughter” plate). There are 6 reps (“daughter” plates) created per master. The created daughter plates are then immediately infested with YFM larvae.
The day before plates are to be treated, mosquito eggs are placed in Millipore water containing liver powder to begin hatching (4 g. into 400 mL). After the daughter plates are created using the robot, they are infested with 220 μL of the liver powder/larval mosquito mixture (about 1 day-old larvae). After plates are infested with mosquito larvae, a non-evaporative lid is used to cover the plate to reduce drying. Plates are held at room temperature for 3 days prior to grading. After 3 days, each well is observed and scored based on mortality.

Test [2] has as its system Cabbage Looper (Trichoplusia ni) ("CL"), second instar larvae. The test can be described thus: Bioassay on cabbage looper (CL), 128-well diet tray assay. The note with it: Trichoplusia ni. An outline of the steps: (§1)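 Second-instar larvae on diet in 128-well trays, covered and held at 25° C, 14:10 light-dark, for five to seven days. Percent mortality scored per well and averaged over eight wells; activity reported as a rating category.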

Test [3] deals with Beet Armyworm (Spodoptera exigua) ("BAW"), second instar larvae. Description: Bioassay on beet armyworm (BAW), 128-well diet tray assay. The settings on record: Spodoptera exigua. An outline of the steps:
as §1

Test [4] relates to Green Peach Aphid ("GPA") (Myzus persicae), wingless adult and nymph stages. Description: Bioassay on green peach aphid (GPA), foliar spray on infested cabbage seedlings. The settings on record: Myzus persicae, foliar, 72 h. An outline of the steps: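 Cabbage seedlings with 2-3 true leaves, infested one day earlier with 20-50 wingless adult and nymph GPA, sprayed to runoff on both leaf sides; solvent check held 20% acetone/methanol (1:1). Live aphids counted after three days at about 25° C; corrected % control = 100*(X−Y)/X versus solvent check.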

Setting [5] is: read-out: CL (Biological Results, rating).
[6] abbreviates: read-out: BAW (Biological Results, rating).
Setting [7] is: read-out: GPA (Biological Results, rating).

Read-outs that look alike come from different tables or passages of the source.

As for `Cc1ccc(C(F)(F)F)c(N2C(=O)CS/C2=N\C(=O)N[C@H](C)Cc2ccc(-c3ncn(-c4ccc(OC(F)(F)F)cc4)n3)cc2)c1` [Compound H3], the “YFM (Biological Results, rating)” value in test [1] is “A (80-100)”. In addition, the pest or weed control at 50 µg/cm2 in test [2] (setting [5]) and in test [3] (setting [6]) was 50 to 100% in each case. For the same molecule, the pest or weed control at 200 µg/mL in test [4] (setting [7]) lay in the range of 80 to 100%.
Consider `O=C(/N=C1\SCC(=O)N1c1ccccc1C(F)F)NCCc1ccc(-c2ncn(-c3ccc(OC(F)(F)F)cc3)n2)cc1` [Compound H11], for which the “YFM (Biological Results, rating)” value in test [1] is recorded as “A (80-100)”. The pest or weed control at 50 µg/cm2 in test [2] (setting [5]) and in test [3] (setting [6]) was 50 to 100% each time. For the same molecule, in test [4] (setting [7]), the pest or weed control at 200 µg/mL was 0 to 80%.
Regarding `CC(F)(F)c1ccccc1N1C(=O)CS/C1=N\C(=O)NCCc1ccc(-c2ncn(-c3ccc(OC(F)(F)F)cc3)n2)cc1` [Compound H21], the “YFM (Biological Results, rating)” value in test [1] is “A (80-100)”. In addition, the pest or weed control at 50 µg/cm2 in test [2] (setting [5]) and in test [3] (setting [6]) was 50 to 100% throughout. Further, in test [4] (setting [7]), the pest or weed control at 200 µg/mL lay within 0 to 80%.
Consider `Cc1ccc([N+](=O)[O-])c(N2C(=O)CS/C2=N\C(=O)Nc2ccc(-c3ncn(-c4ccc(OC(F)(F)F)cc4)n3)cc2)c1` [Compound J313, (Z)-1-(3-(5-Methyl-2-nitrophenyl)-4-oxothiazolidin-2-ylidene)-3-(4-(1-(4-(trifluoromethoxy)phenyl)-1H-1,2,4-triazol-3-yl)phenyl)urea], for which the “YFM (Biological Results, rating)” value in test [1] was “B (More than 0-Less than 80)”. Also, the pest or weed control at 50 µg/cm2 in test [2] (setting [5]) and in test [3] (setting [6]) was 50 to 100% in each case.
For `Cc1cc(-c2cn(-c3ccc(C(F)(F)F)cn3)cn2)ccc1NC(=O)/N=C1\SCC(=O)N1c1cc(N(C)C)ccc1C(C)C` [Compound J510, (Z)-1-(3-(5-(Dimethylamino)-2-isopropylphenyl)-4-oxothiazolidin-2-ylidene)-3-(2-methyl-4-(1-(5-(trifluoromethyl)pyridin-2-yl)-1H-imidazol-4-yl)phenyl)urea], in test [1], the YFM rating result is listed as “A (80-100)”. Further, the pest or weed control at 50 µg/cm2 in test [2] (read-out: CL rating) and in test [3] (read-out: BAW rating) was 50 to 100% each time. In addition, the pest or weed control at 200 µg/mL in test [4] (read-out: GPA rating) lay within 0 to 80%.
Turning to `Cc1ccc(COCc2ccccc2Cl)c(N2C(=O)CS/C2=N\C(=O)Nc2ccc(-c3ncn(-c4ccc(OC(F)(F)F)cc4)n3)cc2F)c1` [Compound J572, (Z)-1-(3-(2-(((2-Chlorobenzyl)oxy)methyl)-5-methylphenyl)-4-oxothiazolidin-2-ylidene)-3-(2-fluoro-4-(1-(4-(trifluoromethoxy)phenyl)-1H-1,2,4-triazol-3-yl)phenyl)urea], the YFM rating result in test [1] is “A (80-100)”. For the same molecule, the pest or weed control at 50 µg/cm2 in test [2] (read-out: CL rating) and in test [3] (read-out: BAW rating) was 50 to 100% each time.
For the molecule `Cc1ccc(Cc2ccc(F)cc2)c(N2C(=O)CS/C2=N\C(=O)Nc2ccc(-c3ncn(-c4ccc(C(F)(F)F)cc4)n3)cc2F)c1` [Compound J673, (Z)-1-(2-Fluoro-4-(1-(4-(trifluoromethyl)phenyl)-1H-1,2,4-triazol-3-yl)phenyl)-3-(3-(2-(4-fluorobenzyl)-5-methylphenyl)-4-oxothiazolidin-2-ylidene)urea], in test [1], the YFM rating result is “A (80-100)”. Also, the pest or weed control at 50 µg/cm2 in test [2] (read-out: CL rating) and in test [3] (read-out: BAW rating) was 50 to 100% throughout.
On to `Cc1ccc(Cc2cccc(F)c2)c(N2C(=O)CS/C2=N\C(=O)Nc2ccc(-c3ncn(-c4ccc(C(F)(F)F)cc4)n3)cc2F)c1` [Compound J675, (Z)-1-(2-Fluoro-4-(1-(4-(trifluoromethyl)phenyl)-1H-1,2,4-triazol-3-yl)phenyl)-3-(3-(2-(3-fluorobenzyl)-5-methylphenyl)-4-oxothiazolidin-2-ylidene)urea], for which, in test [1], the YFM rating result was “A (80-100)”. Moreover, the pest or weed control at 50 µg/cm2 in test [2] (read-out: CL rating) and in test [3] (read-out: BAW rating) was 50 to 100% each time.
Turning to `Cc1ccc(Cc2ccccc2F)c(N2C(=O)CS/C2=N\C(=O)Nc2ccc(-c3ncn(-c4ccc(C(F)(F)F)cc4)n3)cc2F)c1` [Compound J708, (Z)-1-(2-Fluoro-4-(1-(4-(trifluoromethyl)phenyl)-1H-1,2,4-triazol-3-yl)phenyl)-3-(3-(2-(2-fluorobenzyl)-5-methylphenyl)-4-oxothiazolidin-2-ylidene)urea], in test [1], the YFM rating entry is “A (80-100)”. The pest or weed control at 50 µg/cm2 in test [2] (read-out: CL rating) and in test [3] (read-out: BAW rating) was 50 to 100% in each case.
`Cc1ccc(COCc2cc3c(C(F)(F)F)nn(C)c3s2)c(N2C(=O)CS/C2=N\C(=O)Nc2ccc(-c3ncn(-c4ccc(OC(F)(F)F)cc4)n3)cc2F)c1` [Compound J712, (Z)-1-(2-Fluoro-4-(1-(4-(trifluoromethoxy)phenyl)-1H-1,2,4-triazol-3-yl)phenyl)-3-(3-(5-methyl-2-(((1-methyl-3-(trifluoromethyl)-1H-thieno[2,3-c]pyrazol-5-yl)methoxy)methyl)phenyl)-4-oxothiazolidin-2-ylidene)urea]: the YFM rating result in test [1] is “A (80-100)”. For the same molecule, the pest or weed control at 50 µg/cm2 in test [2] (read-out: CL rating) and in test [3] (read-out: BAW rating) was 50 to 100% in each case.
On to `Cc1cc(N2C(=O)CS/C2=N\C(=O)Nc2ccc(-c3ncn(-c4ccc(OC(F)(F)F)cc4)n3)cc2F)c(C)cc1F` [Compound J714, (Z)-1-(3-(4-Fluoro-2,5-dimethylphenyl)-4-oxothiazolidin-2-ylidene)-3-(2-fluoro-4-(1-(4-(trifluoromethoxy)phenyl)-1H-1,2,4-triazol-3-yl)phenyl)urea], for which, in test [1], the YFM rating result is listed as “A (80-100)”. In addition, the pest or weed control at 50 µg/cm2 in test [2] (read-out: CL rating) and in test [3] (read-out: BAW rating) was 50 to 100% each time.
As to `O=C(/N=C1\SCC(=O)N1c1ccccc1-c1ccccc1)Nc1ccc(-c2ncn(-c3ccc(OC(F)(F)F)cc3)n2)cc1F` [Compound J720, (Z)-1-(3-([1,1′-Biphenyl]-2-yl)-4-oxothiazolidin-2-ylidene)-3-(2-fluoro-4-(1-(4-(trifluoromethoxy)phenyl)-1H-1,2,4-triazol-3-yl)phenyl)urea], the YFM rating result in test [1] was “A (80-100)”. Further, the pest or weed control at 50 µg/cm2 in test [2] (read-out: CL rating) and in test [3] (read-out: BAW rating) was 50 to 100% throughout.
Regarding `O=C(/N=C1\SCC(=O)N1c1cc(C(F)(F)F)ccc1COCc1ccccc1)Nc1ccc(-c2ncn(-c3ccc(OC(F)(F)F)cc3)n2)cc1F` [Compound J741, (Z)-1-(3-(2-((Benzyloxy)methyl)-5-(trifluoromethyl)phenyl)-4-oxothiazolidin-2-ylidene)-3-(2-fluoro-4-(1-(4-(trifluoromethoxy)phenyl)-1H-1,2,4-triazol-3-yl)phenyl)urea], the YFM rating entry in test [1] is reported as “A (80-100)”.
Take `Cc1ccc(COCc2ccccc2OC(F)(F)F)c(N2C(=O)CS/C2=N\C(=O)Nc2ccc(-c3ncn(-c4ccc(C(F)(F)F)cc4)n3)cc2F)c1` [Compound J746, (Z)-1-(2-Fluoro-4-(1-(4-(trifluoromethyl)phenyl)-1H-1,2,4-triazol-3-yl)phenyl)-3-(3-(5-methyl-2-(((2-(trifluoromethoxy)benzyl)oxy)methyl)phenyl)-4-oxothiazolidin-2-ylidene)urea]: the YFM rating entry in test [1] is “A (80-100)”. The pest or weed control at 50 µg/cm2 in test [3] (read-out: BAW rating) lay within 50 to 100%.
With `Cc1ccc(COCc2cc(C(F)(F)F)cc(C(F)(F)F)c2)c(N2C(=O)CS/C2=N\C(=O)Nc2ccc(-c3ncn(-c4ccc(C(F)(F)F)cc4)n3)cc2F)c1` [Compound J748, (Z)-1-(3-(2-(((3,5-Bis(trifluoromethyl)benzyl)oxy)methyl)-5-methylphenyl)-4-oxothiazolidin-2-ylidene)-3-(2-fluoro-4-(1-(4-(trifluoromethyl)phenyl)-1H-1,2,4-triazol-3-yl)phenyl)urea], the YFM rating entry in test [1] is given as “A (80-100)”.
Take `Cc1ccc(COCC(F)(F)F)c(N2C(=O)CS/C2=N\C(=O)Nc2ccc(-c3ncn(-c4ccnc(OCC(F)(F)F)c4)n3)cc2F)c1` [Compound J750, (Z)-1-(2-Fluoro-4-(1-(2-(2,2,2-trifluoroethoxy)pyridin-4-yl)-1H-1,2,4-triazol-3-yl)phenyl)-3-(3-(5-methyl-2-((2,2,2-trifluoroethoxy)methyl)phenyl)-4-oxothiazolidin-2-ylidene)urea]: the YFM rating result in test [1] is “A (80-100)”. The pest or weed control at 50 µg/cm2 in test [2] (read-out: CL rating) and in test [3] (read-out: BAW rating) was 50 to 100% in each case.
